Results on 22 molecules are retold here after patent publication US9540343B2 (Gilead Sciences, Inc., priority 2011, dated 2017).

The nature of one data set: in vitro. As to conditions: human, uninfected MT-4 cells, CC50 (nM), same protocol as Test A, CellTiter-Glo. The essentials:
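Cytoprotection read-out: CellTiter-Glo chemiluminescence after 5 days at 37 °C of HIV-IIIb-infected MT-4 cells (m.o.i. 0.003) with compound in 10-point 3-fold dilutions, quadruplicate, 10% FBS. Cytotoxicity (CC50) measured identically without virus.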

The next data set has as its system HIV-IIIb. Put plainly: Test A: Antiviral assay in MT4 cells. It counts as cell-based, HIV-1. As to conditions: Human immunodeficiency virus 1, IIIB, MT4, 120 h, read-out: % inhibition at 2 μM, percent inhibition of virus-induced cell killing, from dose response curve at 2 uM drug; MT-4 cells infected with HIV-IIIb, 5 days, CellTiter-Glo. For orientation: ATP-based viability assays read luminescence as a measure of living cells.

Broadly, the CC50 is the concentration at which the toxic effect on the cells reaches its halfway point. For orientation: inhibition means the change of the read-out against control, counted positive when it falls. Consider `NC(=O)c1cc(-c2cccnc2[C@H](Cc2cc(F)cc(F)c2)NC(=O)Cn2c(=O)[nH]c3ccccc32)ccc1F` [Example 318, (S)-5-(2-(2-(3,5-difluorophenyl)-1-(2-(2-oxo-2,3-dihydro-1H-benzo[d]imidazol-1-yl)acetamido)ethyl)pyridin-3-yl)-2-fluorobenzamide], for which the CC50 at 5 days in the data set “in vitro” was more than 53200 nM. Also, the inhibition at 2 µM with HIV-IIIb was 27%.
In turn, `Cc1cc2nc(C(F)(F)F)n(CC(=O)N[C@@H](Cc3cc(F)cc(F)c3)c3ncccc3-c3ccc(F)c(C(N)=O)c3)c2cc1C` [Example 319, (S)-5-(2-(2-(3,5-difluorophenyl)-1-(2-(5,6-dimethyl-2-(trifluoromethyl)-1H-benzo[d]imidazol-1-yl)acetamido)ethyl)pyridin-3-yl)-2-fluorobenzamide] displayed a CC50 at 5 days in the data set “in vitro” of more than 52500 nM. The inhibition at 2 µM in the data set with HIV-IIIb was determined as 70%.
In the same order, the values of `Cc1cc2ncn(CC(=O)N[C@@H](Cc3cc(F)cc(F)c3)c3ncncc3-c3ccc(Cl)cc3)c2cc1C` [Example 320, (S)—N-(1-(5-(4-chlorophenyl)pyrimidin-4-yl)-2-(3,5-difluorophenyl)ethyl)-2-(5,6-dimethyl-1H-benzo[d]imidazol-1-yl)acetamide] are 12500 nM and 110%.
In the same order, the values of `Cc1cc(=O)n(CC(=O)N[C@@H](Cc2cc(F)cc(F)c2)c2ncccc2-c2cccc(C(N)=O)c2)c2ccccc12` [Example 321, (S)-3-(2-(2-(3,5-difluorophenyl)-1-(2-(4-methyl-2-oxoquinolin-1(2H)-yl)acetamido)ethyl)pyridin-3-yl)benzamide] are 29700 nM and 30%.
In the same order, the values of `NC(=O)c1cc(-c2cccnc2[C@H](Cc2cc(F)cc(F)c2)NC(=O)Cn2nc(C(F)(F)F)c3c2CC(=O)CC3)ccc1F` [Example 322, (S)-5-(2-(2-(3,5-difluorophenyl)-1-(2-(6-oxo-3-(trifluoromethyl)-4,5,6,7-tetrahydro-1H-indazol-1-yl)acetamido)ethyl)pyridin-3-yl)-2-fluorobenzamide] are 37100 nM and 10%.
Molecule `NC(=O)c1cc(-c2cccnc2[C@H](Cc2cc(F)cc(F)c2)NC(=O)Cn2cc(C(=O)O)c(C(F)(F)F)n2)ccc1F` [Example 323, (S)-1-(2-(1-(3-(3-carbamoyl-4-fluorophenyl)pyridin-2-yl)-2-(3,5-difluorophenyl)ethylamino)-2-oxoethyl)-3-(trifluoromethyl)-1H-pyrazole-4-carboxylic acid] gave a CC50 at 5 days in the data set “in vitro” of more than 53200 nM. In addition, the inhibition at 2 µM with HIV-IIIb was found to be 0%.
Molecule `CN1CCc2c(c(C(F)(F)F)nn2CC(=O)N[C@@H](Cc2cc(F)cc(F)c2)c2ncccc2-c2ccc(F)c(C(N)=O)c2)C1` [Example 324, (S)-5-(2-(2-(3,5-difluorophenyl)-1-(2-(5-methyl-3-(trifluoromethyl)-4,5,6,7-tetrahydro-1H-pyrazolo[4,3-c]pyridin-1-yl)acetamido)ethyl)pyridin-3-yl)-2-fluorobenzamide] gave a cytotoxic concentration (CC50) at 5 days in the data set “in vitro” of more than 53200 nM. Moreover, the inhibition at 2 µM in the data set on HIV-IIIb stood at 31%.
The matching figures for `NC(=O)c1cc(-c2cccnc2[C@H](Cc2cc(F)cc(F)c2)NC(=O)Cn2nc(C(F)(F)F)c3c2CC(O)CC3)ccc1F` (stereo partly drawn) [Example 325, 5-(2-((1S)-2-(3,5-difluorophenyl)-1-(2-(6-hydroxy-3-(trifluoromethyl)-4,5,6,7-tetrahydro-1H-indazol-1-yl)acetamido)ethyl)pyridin-3-yl)-2-fluorobenzamide]: 46100 nM and 86%.
In the same order, the values of `NC(=O)c1cc(-c2cccnc2[C@H](Cc2cccc(F)c2)NC(=O)Cn2c(=O)[nH]c3ccccc32)ccc1F` [Example 326, (S)-2-fluoro-5-(2-(2-(3-fluorophenyl)-1-(2-(2-oxo-2,3-dihydro-1H-benzo[d]imidazol-1-yl)acetamido)ethyl)pyridin-3-yl)benzamide] are more than 53200 nM and 27%.
In the same order, the values of `NC(=O)c1cccc(-c2cncnc2[C@H](Cc2cc(F)cc(F)c2)NC(=O)Cc2c[nH]c3ccc(O)cc23)c1` [Example 327, (S)-3-(4-(2-(3,5-difluorophenyl)-1-(2-(5-hydroxy-1H-indol-3-yl)acetamido)ethyl)pyrimidin-5-yl)benzamide] are more than 53200 nM and 94%.
In the case of `O=C(Cc1c[nH]c2ccc(F)cc12)NC(Cc1cc(F)cc(F)c1)c1nc[nH]c(=O)c1-c1ccc(Cl)cc1` (centres unmarked) [Example 328, N-(1-(5-(4-chlorophenyl)-6-oxo-1,6-dihydropyrimidin-4-yl)-2-(3,5-difluorophenyl)ethyl)-2-(5-fluoro-1H-indol-3-yl)acetamide], half-maximal cytotoxicity in “in vitro” (CC50 at 5 days) was put at 10000 nM. In addition, the inhibition at 2 µM in the data set with HIV-IIIb is 0%.
In the same order, the values of `CCOCc1cn(CC(=O)N[C@@H](Cc2cc(F)cc(F)c2)c2ncccc2-c2ccc(F)c(C(N)=O)c2)nc1C(F)(F)F` [Example 330, (S)-5-(2-(2-(3,5-difluorophenyl)-1-(2-(4-(ethoxymethyl)-3-(trifluoromethyl)-1H-pyrazol-1-yl)acetamido)ethyl)pyridin-3-yl)-2-fluorobenzamide] are 29300 nM and 3%.
The matching figures for `O=C(Cc1c[nH]c2ccc(=O)[nH]c12)N[C@@H](Cc1cc(F)cc(F)c1)c1ncncc1-c1ccc(Cl)cc1` [Example 331B, (S)—N-(1-(5-(4-chlorophenyl)pyrimidin-4-yl)-2-(3,5-difluorophenyl)ethyl)-2-(5-oxo-4,5-dihydro-1H-pyrrolo[3,2-b]pyridin-3-yl)acetamide]: 43100 nM and 99%.
In the same order, the values of `NC(=O)c1cc(-c2cccnc2[C@H](Cc2cc(F)cc(F)c2)NC(=O)COc2ccnc(Cl)c2)ccc1F` [Example 332B, (S)-5-(2-(1-(2-(2-chloropyridin-4-yloxy)acetamido)-2-(3,5-difluorophenyl)ethyl)pyridin-3-yl)-2-fluorobenzamide] are 40000 nM and 2%.
As to `CNCc1cn(CC(=O)N[C@@H](Cc2cc(F)cc(F)c2)c2ncccc2-c2ccc(F)c(C(N)=O)c2)nc1C(F)(F)F` [Example 333, (S)-5-(2-(2-(3,5-difluorophenyl)-1-(2-(4-((methylamino)methyl)-3-(trifluoromethyl)-1H-pyrazol-1-yl)acetamido)ethyl)pyridin-3-yl)-2-fluorobenzamide], the CC50 at 5 days in “in vitro” is more than 53200 nM. Moreover, the inhibition at 2 µM in the data set with HIV-IIIb was 2%.
The matching figures for `NC(=O)c1cc(-c2cccnc2[C@H](Cc2cc(F)cc(F)c2)NC(=O)Cn2nc(C(F)F)c3c2C(F)(F)CCC3O)ccc1F` (stereo partly drawn) [Example 334, 5-(2-((1S)-1-(2-(3-(difluoromethyl)-7,7-difluoro-4-hydroxy-4,5,6,7-tetrahydro-1H-indazol-1-yl)acetamido)-2-(3,5-difluorophenyl)ethyl)pyridin-3-yl)-2-fluorobenzamide]: 26500 nM and 63%.
The matching figures for `NC(=O)c1cc(-c2cccnc2[C@H](Cc2cc(F)cc(F)c2)NC(=O)Cn2cc(CNC3CC3)c(C(F)(F)F)n2)ccc1F` [Example 335, (S)-5-(2-(1-(2-(4-((cyclopropylamino)methyl)-3-(trifluoromethyl)-1H-pyrazol-1-yl)acetamido)-2-(3,5-difluorophenyl)ethyl)pyridin-3-yl)-2-fluorobenzamide]: 51100 nM and 3%.
In the data set “in vitro”, `NC(=O)c1cc(-c2cccnc2[C@H](Cc2cc(F)cc(F)c2)NC(=O)Cn2cnc3c(=O)[nH]ccc32)ccc1F` [Example 336, (S)-5-(2-(2-(3,5-difluorophenyl)-1-(2-(4-oxo-4,5-dihydro-1H-imidazo[4,5-c]pyridin-1-yl)acetamido)ethyl)pyridin-3-yl)-2-fluorobenzamide] registered a CC50 at 5 days of more than 53200 nM. In the data set with HIV-IIIb, the inhibition at 2 µM came out at 0%.
In the same order, the values of `N#Cc1nn(CC(=O)N[C@@H](Cc2cc(F)cc(F)c2)c2ncccc2-c2ccc(F)c(C(N)=O)c2)cc1C1CC1` [Example 337, (S)-5-(2-(1-(2-(3-cyano-4-cyclopropyl-1H-pyrazol-1-yl)acetamido)-2-(3,5-difluorophenyl)ethyl)pyridin-3-yl)-2-fluorobenzamide] are 27900 nM and 20%.
For `NC(=O)c1cccc(-c2cccnc2[C@H](Cc2cc(F)cc(F)c2)NC(=O)Cc2c[nH]c3cc(C4CC4)c(=O)[nH]c23)c1` [Example 338C, (S)-3-(2-(1-(2-(6-cyclopropyl-5-oxo-4,5-dihydro-1H-pyrrolo[3,2-b]pyridin-3-yl)acetamido)-2-(3,5-difluorophenyl)ethyl)pyridin-3-yl)benzamide], the CC50 at 5 days in “in vitro” is more than 53000 nM. For the same molecule, the inhibition at 2 µM in the data set with HIV-IIIb was found to be 35%.
In the same order, the values of `NC(=O)c1cc(-c2cccnc2[C@H](Cc2cc(F)cc(F)c2)NC(=O)Cn2nc(C(F)(F)F)c3c2CCC=C3)ccc1F` [Example 339B, (S)-5-(2-(2-(3,5-difluorophenyl)-1-(2-(3-(trifluoromethyl)-6,7-dihydro-1H-indazol-1-yl)acetamido)ethyl)pyridin-3-yl)-2-fluorobenzamide] are 19400 nM and 53%.
In the same order, the values of `NC(=O)c1cc(-c2cccnc2[C@H](Cc2cc(F)cc(F)c2)NC(=O)Cn2nc(C(F)(F)F)c3c2C(F)(F)CCC3=O)ccc1F` [Example 340B, (S)-5-(2-(1-(2-(7,7-difluoro-4-oxo-3-(trifluoromethyl)-4,5,6,7-tetrahydro-1H-indazol-1-yl)acetamido)-2-(3,5-difluorophenyl)ethyl)pyridin-3-yl)-2-fluorobenzamide] are 32800 nM and 32%.
